Test [1] relates to bovine ciliary muscle (BCM) strips. Briefly: tissue or blood. Format: cell-based. The protocol:
The methods utilized in the current studies were adapted from Lograno and Romano [13] and Ohia et al., with some minor modifications. Fresh bovine eyeballs were obtained from a local abattoir (Fisher Ham and Meat Company, Houston, TX, USA) and transported to the laboratory in ice. Whole eyeballs were placed in warm oxygenated Krebs buffer solution for 30 min to ensure equilibration before dissection of the ciliary muscle. Briefly, the anterior segment was dissected out of whole eyeballs after an incision was made at the limbus. The anterior segment containing the cornea, anterior uvea, and lens was then inverted and the lens dislodged with a probe along with the attached vitreous humor. After removal of the vitreous humor and lens, the whole ciliary muscle (comprising both longitudinal and circular portions) was quickly isolated and dissected from the scleral spur and choroid. Muscle strips of 4–5 mm in length were cut and mounted in 25 mL organ baths containing oxygenated Krebs solution at 37 °C using a silk thread linked to an isometric strain gauge under a constant load of 1g tension. The tissues were then allowed to equilibrate for 30 min. Two ciliary muscle strips were prepared from each eyeball and four to eight strips were used for each series of experiments. The composition of the Krebs solution used (mM) was NaCl, 118; KCl, 4.8; CaCl2, 2.5; KH2PO4, 1.2; NaHCO3, 25; MgSO4, 2.0; dextrose, 10 and flurbiprofen, 0.003 (pH 7.4), all purchased from Sigma-Aldrich, St. Louis, MO (USA). […] A robust response was characterized as a single contraction that consistently yielded a tension in the muscle induced by carbachol of 0.15–0.3 gm. […] Tissue strips were then thoroughly rinsed with fresh buffer solution via a series of buffer additions and drainage activities to remove any residual muscarinic agonist, and the preload was readjusted prior to starting the actual study with kininergic ligands. Concentration–response studies employed 7–11 compound concentrations (0.1 nM to 10 µM) and data from multiple experiments were collected.
The contractile responses obtained were expressed as gram tension developed and as percentages of the maximum response of each of the compounds. GraphPad Prism 4.0 Software (San Diego, CA, USA) was then used to construct the concentration–response curves for the kinins and to derive the half-maximal stimulation potencies (EC50) of each phase of the bi-phasic curves and the values tabulated as previously described.

In test [2] the test system is guinea pig trachea. Particulars: tissue contraction, ref [17],[18], cited from earlier work. An excerpt:
Table 2 Ability of BK and Des-Arg^9-BK to Contract Various Tissues of Different Species or to Mobilize Intracellular Ca^2+ in human Ocular Cells. | column: GPT

The test system of test [3] is human umbilical vein. The following applies: B2-receptor-mediated contraction; ref [1],[2],[3],[18],[20],[23]; read-out: Functional potency, HUV, HP Site; cited from earlier work. The text has this:
Table 2 Ability of BK and Des-Arg^9-BK to Contract Various Tissues of Different Species or to Mobilize Intracellular Ca^2+ in human Ocular Cells. | column: HUV

The subject of test [4] is human ciliary muscle (hCM) cells. Particulars: [Ca2+]i mobilization, first value of cell; single B2-receptor subtype; ref [2],[8]; read-out: Functional potency, hCM Cells, HP Site; cited from earlier work. An excerpt: (§1) Table 2 Ability of BK and Des-Arg^9-BK to Contract Various Tissues of Different Species or to Mobilize Intracellular Ca^2+ in human Ocular Cells. | column: hCM/hTM Cells

The test system of test [5] is human trabecular meshwork (hTM) cells. The following applies: [Ca2+]i mobilization, second value of cell; single B2-receptor subtype; ref [2],[8]; read-out: Functional potency, hTM Cells, HP Site; cited from earlier work.
Text: as §1

The test system of test [6] is recombinant B1 receptors expressed in host cells. Particulars: ref [1]; read-out: binding affinity Ki, recombinant B1 receptor (human); cited from earlier work.
Test [7] relates to human bladder strips. Particulars: second value of cell, undefined kinin receptor, ref [10], read-out: Functional potency, M/H BSTP, HP Site (human); cited from earlier work. The text has this: (§2) Table 2 Ability of BK and Des-Arg^9-BK to Contract Various Tissues of Different Species or to Mobilize Intracellular Ca^2+ in human Ocular Cells. | column: M/H BSTP
Test [8] relates to mouse bladder strips. Particulars: first value of cell, undefined kinin receptor, ref [10], read-out: Functional potency, M/H BSTP, HP Site (mouse); cited from earlier work.
Text: as §2

In test [9] the test system is rat uterus strips. Particulars: B2-receptor-mediated contraction; ref [1],[2],[3],[18],[20],[23]; read-out: Functional potency, RUT, HP Site; cited from earlier work. An excerpt: Table 2 Ability of BK and Des-Arg^9-BK to Contract Various Tissues of Different Species or to Mobilize Intracellular Ca^2+ in human Ocular Cells. | column: RUT
Test [10] concerns recombinant B1 receptors expressed in host cells. The following applies: ref [1]; read-out: binding affinity Ki, recombinant B1 receptor (mouse); cited from earlier work.
The test system is the same in test [11]. The following applies: ref [1]; read-out: binding affinity Ki, recombinant B1 receptor (rabbit); cited from earlier work.
In test [12] the test system is rat whole bladder. The following applies: B2-receptor-mediated contraction; ref [1],[2],[3],[18],[20],[23]; read-out: Functional potency, RWB, HP Site; cited from earlier work. An excerpt:
Table 2 Ability of BK and Des-Arg^9-BK to Contract Various Tissues of Different Species or to Mobilize Intracellular Ca^2+ in human Ocular Cells. | column: RWB

Test [13] has as its system guinea pig taenia caeci. The following applies: tissue contraction, ref [17],[18], cited from earlier work. An excerpt: Table 2 Ability of BK and Des-Arg^9-BK to Contract Various Tissues of Different Species or to Mobilize Intracellular Ca^2+ in human Ocular Cells. | column: GPTC
The test system of test [14] is rat ileum. The following applies: B1-receptor in rat ileum, contraction; ref [25]; read-out: Functional potency, RI, HP Site; cited from earlier work. An excerpt: Table 2 Ability of BK and Des-Arg^9-BK to Contract Various Tissues of Different Species or to Mobilize Intracellular Ca^2+ in human Ocular Cells. | column: RI || In the current studies, both BK and Des-Arg^9-BK contracted the BCM in a biphasic fashion, indicating the involvement of both B1 and B2 receptors in the smooth muscle contraction process. Other agonist peptides related to BK also elicited similar profiles of contractility, thereby substantiating the effects of BK and Des-Arg^9-BK in this specific tissue. Furthermore, the role of both kinin receptor subtypes being responsible for contracting BCM in vitro was confirmed by sequentially recording the functional responses of the tissue in the presence of B1- and B2-receptor antagonists in numerous ...

Read-outs that look alike come from different tables or passages of the source. Peptide text beside a SMILES is read from it.

`N=C(N)NCCC[C@H](NC(=O)[C@H](Cc1ccccc1)NC(=O)[C@@H]1CCCN1C(=O)[C@H](CO)NC(=O)[C@H](Cc1ccccc1)NC(=O)CNC(=O)[C@@H]1CCCN1C(=O)[C@@H]1CCCN1C(=O)[C@@H](N)CCCNC(=N)N)C(=O)O` [BK, Bradykinin] (H-RPPGFSPFR-OH; N-terminus and C-terminus assumed): the EC50 in test [1] was 0.9 ± 0.3 nM; in test [2] (high potency site, read-out: Functional potency, GPT, HP Site) it was 20 nM; in [2] (low potency site, read-out: Functional potency, GPT, LP Site), 4000 nM; in test [3], 9 nM; in test [4], 2.4 nM; in test [5], 1 nM. Besides, the EC50 in [7] is 5.1 µM; in test [8] it was 1200 nM; in test [9], 3 nM; in [12] it was 90 nM; in test [13] (high potency site, read-out: Functional potency, GPTC, HP Site) it was 3 nM; in [13] (low potency site, read-out: Functional potency, GPTC, LP Site) it was 1000 nM. Moreover, the EC50 in test [14] is 4.89 µM. The “share of the maximal contraction accounted for by the first high affinity/potency phase” value in [1] (biphasic C-R curve, BCM strips) is 40–60%. Further, the “Max. Tension Generated During Contraction” value in [1] (freshly isolated BCM strips, Krebs 37 °C, 1 g load, 7–11 concentrations (0.1 nM–10 µM), mean ± SEM, 3–8 experiments) turned out to be 0.07 ± 0.01 gm tension. Besides, the Ki is 10 µM in test [6], 200 nM in [10] and 5 µM in test [11].

For orientation: Ki means a dissociation constant, usually derived from enzyme kinetics or from competition with a known ligand.

Source of the values: paper PMC11597478, “Kinin B1- and B2-Receptor Subtypes Contract Isolated Bovine Ciliary Muscle: Their Role in Ocular Lens Function and Intraocular Pressure Reduction” (Pharmaceuticals, 2024).
